“And” between values parts separate entries of the source, which are not always exact repeats. Equal values may be shown once.

Experiment [1] concerns P. falciparum NF54 gametocytes. Kind of experiment: gametocyte viability assay (AlamarBlue). It is filed as cell-based, Plasmodium falciparum. The protocol: Asexual parasites of P. falciparum strain NF54 were cultured as described previously. Briefly, parasites were maintained in RPMI 1640 medium containing 10% positive human serum + erythrocytes (5% haematocrit), 2.5% sodium bicarbonate and 11 µg/mL gentamicin at 37 °C with 5% CO2, 5% O2 and 90% N2. Gametocyte cultures were set up at 0.1% parasitaemia and on days 9–10 treated with 50 mM N-acetylglucosamine (NAG) to block further asexual growth. Stage III–V gametocytes were isolated by Percoll density gradient centrifugation on day 12 and returned to culture for 24 h before being used in the assay. At the time of the assay over 73% of the gametocytes were stage IV or V (Additional file 1). HepG2 cells (ATCC, cat. no. 77400) were cultured in 175-cm^2 tissue culture flasks with 30 ml growth medium at 37 °C in a 5% CO2 and 5% O2 humidified atmosphere. Growth medium was made with Dulbecco’s Modified Eagle Medium with 10% fetal bovine serum (FBS). Growth medium was replaced every other day and cells were passaged at 75% confluence.
Compounds from the Sytravon library (a retired Pharma screening collection that contains a diversity of novel small molecules, with an emphasis on medicinal chemistry-tractable scaffolds) were obtained as powder samples and dissolved in DMSO as […] stock solutions. Compound screening experiments were performed as previously described. In the primary screen, two concentrations for each compound were tested. No technical and biological replicates were involved. In the follow-up confirmation studies, three biological replicates were tested for each compound in both parasite assays. The positive control was 46 µM of Torin 2 and negative control was DMSO. Briefly, 2.5 μL/well incomplete medium was dispensed into each well of 1536-well plates using the Multidrop Combi followed by 23 nL compound transferring using the NX-TR Pintool (WAKO Scientific Solutions, San Diego, CA). Then, 2.5 μL/well of gametocytes was dispensed with a seeding density of 20,000 cells/well using the Multidrop Combi. The assay plates were incubated for 72 h at 37 °C with 5% CO2. After addition of 5 μL/well of 2X AlamarBlue dye (Life Technologies, cat. no. DAL1100), the plates were incubated for 24 h at 37 °C with 5% CO2 and then were read in a fluorescence detection mode (Ex = 525 nm, Em = 598 nm) on a ViewLux plate reader (PerkinElmer).

In a further experiment the target is T1, PIK3CD (Homo sapiens, UniProt O00329).
T1 construct: purchased DiscoverX (KINOMEscan)
T1 sequence (O00329 1-1044): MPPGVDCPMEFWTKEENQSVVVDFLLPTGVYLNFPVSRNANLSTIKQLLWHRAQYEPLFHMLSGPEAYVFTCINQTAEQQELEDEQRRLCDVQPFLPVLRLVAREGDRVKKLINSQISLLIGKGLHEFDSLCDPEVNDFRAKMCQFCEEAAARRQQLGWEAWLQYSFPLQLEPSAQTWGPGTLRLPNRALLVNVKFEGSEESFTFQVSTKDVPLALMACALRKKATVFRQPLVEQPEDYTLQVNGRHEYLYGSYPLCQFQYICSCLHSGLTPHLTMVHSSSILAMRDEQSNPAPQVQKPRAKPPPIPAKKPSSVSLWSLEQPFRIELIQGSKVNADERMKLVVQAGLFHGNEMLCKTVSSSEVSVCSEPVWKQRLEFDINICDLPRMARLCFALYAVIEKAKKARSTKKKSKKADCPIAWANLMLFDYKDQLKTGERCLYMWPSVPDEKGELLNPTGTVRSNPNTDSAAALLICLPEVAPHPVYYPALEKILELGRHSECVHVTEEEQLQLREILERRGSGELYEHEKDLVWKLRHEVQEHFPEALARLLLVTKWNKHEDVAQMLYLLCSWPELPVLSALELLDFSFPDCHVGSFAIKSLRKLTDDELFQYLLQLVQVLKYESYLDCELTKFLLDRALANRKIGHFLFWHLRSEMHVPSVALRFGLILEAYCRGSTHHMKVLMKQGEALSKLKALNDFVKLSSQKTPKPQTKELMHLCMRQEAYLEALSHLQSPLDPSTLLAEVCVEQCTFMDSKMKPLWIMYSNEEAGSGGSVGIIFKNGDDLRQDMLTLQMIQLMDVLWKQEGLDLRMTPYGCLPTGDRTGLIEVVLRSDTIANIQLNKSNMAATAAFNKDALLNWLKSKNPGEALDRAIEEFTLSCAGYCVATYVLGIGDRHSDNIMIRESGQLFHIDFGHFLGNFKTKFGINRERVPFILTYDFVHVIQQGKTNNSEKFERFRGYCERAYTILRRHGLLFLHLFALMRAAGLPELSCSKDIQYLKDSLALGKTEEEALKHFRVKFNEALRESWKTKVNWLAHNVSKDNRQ
The experiment can be described thus: Kinome scan profile. Type of experiment: binding. As to conditions: 10 μM.

Experiment [2] has as its target T2, ABL1(Q252H)-phosphorylated (Homo sapiens, UniProt P00519, Q252H).
T2 construct: purchased DiscoverX (KINOMEscan)
The experiment can be described thus: Kinome scan profile. Type of experiment: binding. To be noted: 10 μM.

A further experiment has as its target T3, ERBB3 (Homo sapiens, UniProt P21860).
T3 construct: purchased DiscoverX (KINOMEscan)
Kind of experiment: Kinome scan profile. Type of experiment: binding. To be noted: 10 μM.

The test system of a further experiment is 468 human kinases. The experiment can be described thus: human kinase profiling (Kinome scan, DiscoverX), whole panel. It is filed as binding.
Experiment [3] concerns the target T4, TYK2(JH1domain-catalytic) (Homo sapiens, UniProt P29597).
T4 construct: TYK2(JH1domain-catalytic); purchased DiscoverX (KINOMEscan)
T4 sequence (P29597 897-1176 limits assumed): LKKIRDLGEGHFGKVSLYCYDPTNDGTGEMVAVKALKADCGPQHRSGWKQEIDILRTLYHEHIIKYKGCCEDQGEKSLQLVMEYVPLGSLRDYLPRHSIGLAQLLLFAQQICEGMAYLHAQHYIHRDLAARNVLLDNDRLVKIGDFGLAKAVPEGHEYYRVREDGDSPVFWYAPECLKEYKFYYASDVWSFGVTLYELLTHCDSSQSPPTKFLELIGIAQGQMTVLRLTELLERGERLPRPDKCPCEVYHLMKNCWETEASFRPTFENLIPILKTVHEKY
The experiment can be described thus: Kinome scan profile. Type of experiment: binding. To be noted: 10 μM.

T3 sequence (P21860 20-1342): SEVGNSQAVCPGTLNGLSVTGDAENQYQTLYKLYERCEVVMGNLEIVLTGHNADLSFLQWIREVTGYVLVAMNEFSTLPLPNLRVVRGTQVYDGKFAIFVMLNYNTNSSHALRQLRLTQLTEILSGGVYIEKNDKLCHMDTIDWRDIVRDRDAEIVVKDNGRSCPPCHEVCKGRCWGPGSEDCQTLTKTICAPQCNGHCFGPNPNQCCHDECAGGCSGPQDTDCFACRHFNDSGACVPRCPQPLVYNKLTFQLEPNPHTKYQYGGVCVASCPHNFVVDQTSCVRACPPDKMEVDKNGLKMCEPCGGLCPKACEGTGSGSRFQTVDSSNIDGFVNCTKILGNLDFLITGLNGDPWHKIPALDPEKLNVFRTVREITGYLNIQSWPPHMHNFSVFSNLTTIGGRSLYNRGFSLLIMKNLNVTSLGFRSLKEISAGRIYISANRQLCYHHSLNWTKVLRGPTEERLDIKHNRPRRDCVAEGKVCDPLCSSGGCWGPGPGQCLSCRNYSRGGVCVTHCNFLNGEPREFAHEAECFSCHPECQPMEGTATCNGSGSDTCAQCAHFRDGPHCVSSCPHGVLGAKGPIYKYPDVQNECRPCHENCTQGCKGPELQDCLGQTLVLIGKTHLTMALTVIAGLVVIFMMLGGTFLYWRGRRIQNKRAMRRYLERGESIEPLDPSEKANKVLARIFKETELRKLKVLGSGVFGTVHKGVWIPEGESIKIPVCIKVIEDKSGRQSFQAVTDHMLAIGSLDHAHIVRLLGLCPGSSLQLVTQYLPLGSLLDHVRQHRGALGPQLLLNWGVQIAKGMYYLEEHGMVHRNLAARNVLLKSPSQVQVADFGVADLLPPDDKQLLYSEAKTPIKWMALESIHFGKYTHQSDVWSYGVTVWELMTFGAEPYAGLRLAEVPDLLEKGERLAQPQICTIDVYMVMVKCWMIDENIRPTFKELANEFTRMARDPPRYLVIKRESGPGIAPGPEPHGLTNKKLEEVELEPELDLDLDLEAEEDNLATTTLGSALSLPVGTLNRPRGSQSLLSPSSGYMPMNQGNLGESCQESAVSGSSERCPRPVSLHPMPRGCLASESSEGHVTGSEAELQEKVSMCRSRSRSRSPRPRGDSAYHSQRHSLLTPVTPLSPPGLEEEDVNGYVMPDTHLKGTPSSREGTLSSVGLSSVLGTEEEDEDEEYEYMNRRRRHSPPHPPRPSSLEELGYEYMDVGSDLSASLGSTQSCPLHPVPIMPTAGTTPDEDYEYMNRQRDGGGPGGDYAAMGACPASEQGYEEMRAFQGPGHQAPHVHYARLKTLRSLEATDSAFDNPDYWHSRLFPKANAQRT

For `CCN1CCN(Cc2c(O)ccc3c(=O)c(Oc4ccccc4C(C)C)c(C(F)(F)F)oc23)CC1` [NCGC00100599], the IC50 (commonly the midpoint of a concentration-inhibition curve) in experiment [1] (P. falciparum NF54 stage III-V gametocytes, 72 h, AlamarBlue, mean ± SD, n = 3) was 4.18 µM and 4.34 µM. Besides, in experiment [1] (ratio of asexual IC50 to gametocyte IC50), the Asexual/Gametocyte stood at 0.08. Moreover, on PIK3CD, the “% Control, PIK3CD” value is 10 % Control. The “% Control, ABL1(Q252H)-phosphorylated” value in experiment [2] was 9.9 % Control. The “% Control, ERBB3” value at ERBB3 is reported as 17 % Control. Further, in the experiment with 468 human kinases (10 μM), the “number of human kinases interacting (Interactions Mapped, 468 Assays Tested)” value turned out to be 16. Also, the “S-Score(35)” value in the experiment on 468 human kinases (10 µM, 468 assays) is given as 0.03. Further, the “% Control, TYK2(JH1domain-catalytic)” value in experiment [3] was found to be 19 % Control.

Source of the values: PMC5390467, “Novel lead structures with both Plasmodium falciparum gametocytocidal and asexual blood stage activity identified from high throughput compound screening” (Malaria Journal, 2017).
